Like-named read-outs stand apart in the source and are kept apart here.
Target: T1, Leucine-rich repeat serine/threonine-protein kinase 2 (LRRK2), WD-40 repeat (WDR) domain (Homo sapiens, UniProt Q5S007)
T1 construct: WD-40 repeat (WDR) domain
T1 sequence (Q5S007 2142-2527): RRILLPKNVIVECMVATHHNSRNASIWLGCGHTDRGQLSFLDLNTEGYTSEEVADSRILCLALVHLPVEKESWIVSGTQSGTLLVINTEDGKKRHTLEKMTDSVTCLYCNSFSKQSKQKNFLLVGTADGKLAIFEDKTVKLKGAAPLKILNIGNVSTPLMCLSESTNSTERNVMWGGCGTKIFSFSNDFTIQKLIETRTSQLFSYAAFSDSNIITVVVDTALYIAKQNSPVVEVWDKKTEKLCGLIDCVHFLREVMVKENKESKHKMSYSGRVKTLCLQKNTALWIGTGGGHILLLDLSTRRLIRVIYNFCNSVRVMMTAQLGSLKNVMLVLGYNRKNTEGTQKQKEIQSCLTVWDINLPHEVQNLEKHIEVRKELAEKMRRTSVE
Assay: SPR
Format: binding

SMILES | Kd | Kd (read-out: Kd)
O=C(CN1CCC2(C1)C(=O)Nc1ccccc12)Nc1ccc2c(c1)CCC2 (centres unmarked) [CACHE_1181_33] | > 100 µM | 
O=C(NCc1ccc[nH]c1=O)N1CCC(CCc2ccc(F)cc2F)CC1 [CACHE_1181_50] |  | > 100 µM

— paper PMC11683865, “CACHE Challenge #1: Docking with GNINA Is All You Need” (Journal of Chemical Information and Modeling, 2024)
